Data: patent US12497365B2, “4-pyridinyl formamide compound or derivative thereof, preparation method therefor, herbicidal composition and use thereof” (Qingdao Kingagroot Chemical Compound Co., Ltd., priority 2019, dated 2025)

Columns and labels:
[1] = system: Alopecurus myosuroides; test: Weeding effect in post-emergence stage; type: in vivo; settings: active ingredient 250 g/ha
Source text: (§1) The activity level criteria for plant damage (i.e., growth control rate) are as follows:
(§2) The above growth control rates are fresh weight control rates.
(§3) Experiment on weeding effect in post-emergence stage: monocotyledonous and dicotyledonous weed seeds and major crop seeds (wheat, corn, rice, soybean, cotton, oilseed rape, millet, sorghum) were placed in plastic pots filled with soil, then covered with 0.5-2 cm of soil, allowed to grow in a good greenhouse environment. After 2 weeks of sowing, the test plants were treated in the 2-3 leaf stage. The tested compounds of the present invention were respectively dissolved in acetone at the dosage of 2000, 1000, 500, 250, 125 g/ha, then added with Tween 80 and 1.5 liter/ha of emulsifiable concentrate of methyl oleate as synergist, diluted with a certain amount of water to obtain a solution with a certain concentration, and sprayed with a spray tower onto the plants. After the application, the plants were cultured for 3 weeks in the greenhouse, and then the experimental results were listed in Table 1.
(§4) In addition, under the active ingredient of 250 g/ha, many compounds also show good crop selectivity and excellent control effect on key weeds.

[2] = system: Alopecurus aequalis; test: Weeding effect in post-emergence stage; type: in vivo; settings: active ingredient 250 g/ha
Source text: as §1, §2, §3, §4

[3] = system: Beckmannia syzigachne; test: Weeding effect in post-emergence stage; type: in vivo; settings: active ingredient 250 g/ha
Source text: as §1, §2, §3, §4

[4] = system: Sclerochloa dura; test: Weeding effect in post-emergence stage; type: in vivo; settings: active ingredient 250 g/ha
Source text: as §1, §2, §3, §4

[5] = system: Descurainia sophia; test: Weeding effect in post-emergence stage; type: in vivo; settings: for Activity level (growth control rate), Descurainia sophia: active ingredient 250 g/ha; for Weeding effect, activity level (growth control rate), Descurainia sophia: active ingredient 2000 g/ha, 3 weeks after application, fresh weight control rate
Method in brief: (§5)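 Weeds sown in soil-filled pots under 0.5-2 cm cover were grown in a greenhouse and sprayed at the 2-3 leaf stage, 2 weeks after sowing. Compounds in acetone with Tween 80 and 1.5 liter/ha methyl oleate concentrate were applied at 2000, 1000, 500, 250 or 125 g/ha. Fresh weight control rate was scored after 3 weeks.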

[6] = system: Abutilon theophrasti; test: Weeding effect in post-emergence stage; type: in vivo; settings: active ingredient 2000 g/ha, 3 weeks after application, fresh weight control rate
Method in brief: as §5

[7] = system: Chenopodium album; test: Weeding effect in post-emergence stage; type: in vivo; settings: active ingredient 2000 g/ha, 3 weeks after application, fresh weight control rate
Method in brief: as §5

[8] = system: Amaranthus retroflexus L.; test: Weeding effect in post-emergence stage; type: in vivo; settings: active ingredient 2000 g/ha, 3 weeks after application, fresh weight control rate
Method in brief: as §5

[9] = system: Wheat; test: Crop selectivity in post-emergence stage; type: in vivo; settings: active ingredient 250 g/ha
Source text: as §1, §2, §3, §4

[10] = system: Echinochloa crusgalli, Scirpus juncoides, Bidens tripartita L., Sagittaria trifolia, Monochoria vaginalis; test: Weed control effect evaluation in rice field; type: in vivo, rice field weeds; settings: weed seeds collected from Heilongjiang Province of China
Source text: Transplanted rice safety evaluation and weed control effect evaluation in rice field:
Rice field soil was loaded into a 1/1,000,000 ha pot. The seeds of Echinochloa crusgalli, Scirpus juncoides, Bidens tripartita L., Sagittaria trifolia, and Monochoria vaginalis were sowed and gently covered with soil, then left to stand still in greenhouse in the state of 0.5-1 cm of water storage. The tuber of Sagittaria trifolia was planted in the next day or 2 days later. It was kept at 3-4 cm of water storage thereafter. The weeds were treated by dripping the WP or SC water diluents prepared according to the common preparation method of the compounds of the present invention with pipette homogeneously to achieve specified effective amount when Echinochloa crusgalli, Scirpus juncoides, Bidens tripartita L., and Monochoria vaginalis reached 0.5 leaf stage and Sagittaria trifolia reached the time point of primary leaf stage.
The fertility condition of Echinochloa crusgalli, Scirpus juncoides, Bidens tripartita L., Sagittaria trifolia and Monochoria vaginalis 14 days after the treatment of the compound of the invention and the fertility condition of rice 21 days after the treatment of the compound of the invention respectively with the naked eye. Evaluate the weed control effect with the above 0-5 activity standard level, many compounds show excellent activity and selectivity. […]

Compound | Activity level (growth control rate), Alopecurus myosuroides [1] | Activity level (growth control rate), Alopecurus aequalis [2] | Activity level (growth control rate), Beckmannia syzigachne [3] | Activity level (growth control rate), Sclerochloa dura [4] | Activity level (growth control rate), Descurainia sophia [5] | Weeding effect, activity level (growth control rate), Descurainia sophia [5] | Weeding effect, activity level (growth control rate), Abutilon theophrasti [6] | Weeding effect, activity level (growth control rate), Chenopodium album [7] | Weeding effect, activity level (growth control rate), Amaranthus retroflexus L. [8] | Plant damage level (growth control rate), Wheat [9] | Response of the rice field weeds to common doses of the herbicide [10]
Cn1nnnc1NC(=O)c1ccnc(-c2ccccc2F)c1Cl [Compound 1-15] | 5 (Level 5: growth control rate is above 85%) | 5 (Level 5: growth control rate is above 85%) | 5 (Level 5: growth control rate is above 85%) | 5 (Level 5: growth control rate is above 85%) | 5 (Level 5: growth control rate is above 85%) | 5 (Level 5: growth control rate is above 85%) | 5 (Level 5: growth control rate is above 85%) | 5 (Level 5: growth control rate is above 85%) | 5 (Level 5: growth control rate is above 85%) | 0 (Level 0: growth control rate is less than 5%) | –
Cn1nnnc1NC(=O)c1ccnc(-c2ccc(F)cc2)c1Cl [Compound 1-17] | 5 (Level 5: growth control rate is above 85%) | 5 (Level 5: growth control rate is above 85%) | 5 (Level 5: growth control rate is above 85%) | 5 (Level 5: growth control rate is above 85%) | 5 (Level 5: growth control rate is above 85%) | 5 (Level 5: growth control rate is above 85%) | 5 (Level 5: growth control rate is above 85%) | 5 (Level 5: growth control rate is above 85%) | 5 (Level 5: growth control rate is above 85%) | 0 (Level 0: growth control rate is less than 5%) | –
Cn1nnnc1NC(=O)c1ccnc(OCC(F)(F)F)c1Cl [Compound 1-2062] | – | – | – | – | – | 5 (Level 5: growth control rate is above 85%) | 5 (Level 5: growth control rate is above 85%) | 5 (Level 5: growth control rate is above 85%) | 5 (Level 5: growth control rate is above 85%) | – | –
Cn1nnnc1NC(=O)c1ccnc(Oc2ccccc2)c1Cl [Compound 1-2063] | – | – | – | – | – | 5 (Level 5: growth control rate is above 85%) | 5 (Level 5: growth control rate is above 85%) | 5 (Level 5: growth control rate is above 85%) | 5 (Level 5: growth control rate is above 85%) | – | –
Cn1nnnc1NC(=O)c1ccnc(OCc2ccccc2)c1Cl [Compound 1-2064] | – | – | – | – | – | 5 (Level 5: growth control rate is above 85%) | 5 (Level 5: growth control rate is above 85%) | 5 (Level 5: growth control rate is above 85%) | 5 (Level 5: growth control rate is above 85%) | – | –
CSc1nccc(C(=O)Nc2nnnn2C)c1Cl [Compound 1-2065] | – | – | – | – | – | 5 (Level 5: growth control rate is above 85%) | 5 (Level 5: growth control rate is above 85%) | 5 (Level 5: growth control rate is above 85%) | 5 (Level 5: growth control rate is above 85%) | – | –
COc1ccc(CSc2nccc(C(=O)Nc3nnnn3C)c2Cl)cc1 [Compound 1-2069] | – | – | – | – | – | 5 (Level 5: growth control rate is above 85%) | 5 (Level 5: growth control rate is above 85%) | 5 (Level 5: growth control rate is above 85%) | 5 (Level 5: growth control rate is above 85%) | – | –
CCC[S+]([O-])c1nccc(C(=O)Nc2nnnn2C)c1Cl (stereo not drawn) [Compound 1-2070] | – | – | – | – | – | 5 (Level 5: growth control rate is above 85%) | 5 (Level 5: growth control rate is above 85%) | 5 (Level 5: growth control rate is above 85%) | 5 (Level 5: growth control rate is above 85%) | – | –
CCCS(=O)(=O)c1nccc(C(=O)Nc2nnnn2C)c1Cl [Compound 1-2071] | – | – | – | – | – | 5 (Level 5: growth control rate is above 85%) | 5 (Level 5: growth control rate is above 85%) | 5 (Level 5: growth control rate is above 85%) | 5 (Level 5: growth control rate is above 85%) | – | –
Cn1nnnc1NC(=O)c1ccnc(Nc2ccccc2)c1Cl [Compound 1-2075] | – | – | – | – | – | 5 (Level 5: growth control rate is above 85%) | 5 (Level 5: growth control rate is above 85%) | 5 (Level 5: growth control rate is above 85%) | 5 (Level 5: growth control rate is above 85%) | – | –
Cc1nonc1NC(=O)c1ccnc(C)c1Cl [Control compound A, reference compound] | 0 (Level 0: growth control rate is less than 5%) | 0 (Level 0: growth control rate is less than 5%) | 0 (Level 0: growth control rate is less than 5%) | 0 (Level 0: growth control rate is less than 5%) | 0 (Level 0: growth control rate is less than 5%) | – | – | – | – | 0 (Level 0: growth control rate is less than 5%) | –
COc1cnc(OC)n2nc(NS(=O)(=O)c3c(OCC(F)F)cccc3C(F)(F)F)nc12 [Penoxsulam, penoxsulam] | – | – | – | – | – | – | – | – | – | – | resistant
CCOC(=O)c1cnn(C)c1S(=O)(=O)NC(=O)Nc1nc(OC)cc(OC)n1 [Pyrazosulfuron-ethyl, pyrazosulfuron-ethyl] | – | – | – | – | – | – | – | – | – | – | resistant
